In one assay the target is human M4 receptor (Homo sapiens (Human), UniProt P08173). The assay is described as follows: In vitro M4 functional assay (intracellular calcium, FLiPR Tetra). It is filed as cell-based. Conditions: for Emax: relative efficacy to an EC100 concentration of acetylcholine, read-out: M4 % RE. As for the experimental part:
(§1) In Vitro M4 &M2 Functional Assay
(§2) The functional activity of compounds at the M4 and M2 receptors was determined by measuring changes in the level of intracellular calcium ions caused by signalling cascades mediated by the receptor. Intracellular Calcium levels were measured using a calcium sensitive fluorescent dye, calcium 5 (Molecular Devices) The changes in fluorescence were monitored by a fluorescent imager, FLiPR Tetra (Molecular devices). Increases in intracellular calcium were readily detected upon activation of both receptors by the muscarinic receptor agonist Acetylcholine.
(§3) CHOK1 cells stably expressing human M4 or M2 receptor and co-expressing the accessory g-protein Gα16 were routinely grown as monolayers in Hams-F12 medium (Invitrogen) supplemented with 10% foetal bovine serum (FBS) (Hyclone), 500 ug/mL Geneticin and 250 ug/mL zeocin (both invitrogen) in 5% CO2 at 37° C. Once confluent is cells cryopreserved by freezing at −186° C. in freezing solution (90% FBS 10% DMSO) (Sigma-Aldrich Co.). Twenty-four hours prior to testing cells resuscitated and freezing media removed via centrifugation, cells then seeded in a black walled clear bottom 384 well plates (Corning) at a density of 15,000 cells/well in Hams F12 media supplemented with 10% FBS. On the day of assay, growth media was removed and replaced with 63 μl of Calcium 5 dye solution (Molecular Devices) in assay buffer (HBSS, 20 mM HEPES, 0.1% BSA, 1 mM Probenecid pH7.4 (Sigma-Aldrich Co.)) per well (each vial of Calcium 5 resuspended in 27 mL of assay buffer). Cells were then incubated for 45 minutes at 37° C., 5% CO2. Compound was serially diluted in DMSO (log/half log) before being diluted 1:20 with assay buffer. 7 μl of compound diluted in assay buffer was then added to cells on FLiPR tetra and fluorescence intensity measured for 5 minutes. EC50 values for compounds were determined from ten point half log scale dose-response studies and represent the concentration of compound required to […] maximal response. Curves were generated using the average of duplicate wells for each data point and analyzed using non-linear regression of four parameter dose response. Percentage Relative efficacy (RE) to an EC100 concentration of acetylcholine was reported for all compounds. The results are set out in Table 3 below in which the term “No Response” means that there was no significant response of calcium flux in the assay indicative of agonism.
Background: Calcium assays in cells follow changes in intracellular calcium, usually with a dye or a luminescent sensor.

For another assay, the target named is human M2 receptor (Homo sapiens (Human), UniProt P08172). The assay is described as follows: In vitro M2 functional assay (intracellular calcium, FLiPR Tetra). It is filed as cell-based. Conditions: for M2 EC50 / EC50: CHOK1 cells stably expressing human M2 receptor and Gα16, calcium flux, No Response = no significant response of calcium flux indicative of agonism; for activation at 10 µM: response at 10 μM compound, relative to an EC100 concentration of acetylcholine, read-out: M2 % RE @ 10 μM. As for the experimental part: as §1, §2, §3

Setting [1] is: CHOK1 cells stably expressing human M4 receptor and Gα16, calcium flux.

SMILES strings stand for the structures.

Chain of human M2 receptor (P08172 whole entry): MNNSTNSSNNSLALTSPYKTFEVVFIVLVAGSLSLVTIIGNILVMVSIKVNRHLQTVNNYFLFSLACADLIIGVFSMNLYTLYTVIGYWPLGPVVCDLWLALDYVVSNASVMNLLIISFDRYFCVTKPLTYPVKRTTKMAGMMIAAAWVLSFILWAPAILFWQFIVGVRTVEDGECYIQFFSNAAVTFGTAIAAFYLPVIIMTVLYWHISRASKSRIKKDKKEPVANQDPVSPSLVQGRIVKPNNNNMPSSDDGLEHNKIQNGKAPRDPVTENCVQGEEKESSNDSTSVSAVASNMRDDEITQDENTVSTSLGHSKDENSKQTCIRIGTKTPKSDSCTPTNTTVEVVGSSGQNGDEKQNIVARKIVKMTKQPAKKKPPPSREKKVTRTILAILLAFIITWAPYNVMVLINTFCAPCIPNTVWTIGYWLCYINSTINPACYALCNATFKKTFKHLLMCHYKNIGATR
Chain of human M4 receptor (P08173 whole entry): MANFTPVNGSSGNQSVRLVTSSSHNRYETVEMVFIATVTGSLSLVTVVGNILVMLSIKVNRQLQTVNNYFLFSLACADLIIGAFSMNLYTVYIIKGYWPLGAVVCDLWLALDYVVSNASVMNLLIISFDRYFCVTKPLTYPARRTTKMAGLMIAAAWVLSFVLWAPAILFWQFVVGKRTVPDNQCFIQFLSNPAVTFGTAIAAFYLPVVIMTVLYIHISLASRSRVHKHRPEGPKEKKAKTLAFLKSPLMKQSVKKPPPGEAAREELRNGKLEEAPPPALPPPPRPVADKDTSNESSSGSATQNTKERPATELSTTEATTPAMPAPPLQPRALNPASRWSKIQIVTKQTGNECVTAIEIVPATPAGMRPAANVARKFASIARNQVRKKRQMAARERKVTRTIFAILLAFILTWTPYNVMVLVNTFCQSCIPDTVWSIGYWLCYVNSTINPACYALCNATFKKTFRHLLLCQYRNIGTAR

For `CCOC(=O)N1CCCC(N2CCC(c3cccnc3OCc3cc(C)no3)CC2)CC1` (centres unmarked) [Example 54, Ethyl 4-(4-{2-[(3-methyl-1,2-oxazol-5-yl)methoxy]pyridin-3-yl}piperidin-1-yl)azepane-1-carboxylate], the EC50 – broadly, the concentration at which the effect is half-maximal – at human M4 receptor (setting [1]) came out at 20 nM. Besides, the Emax on human M4 receptor amounted to 94%. At human M2 receptor, the “M2 EC50” value is recorded as “No Response”.
The like results for `CCOC(=O)N1CCCC(N2CCC(c3nc(C)ncc3OC)CC2)CC1` (centres unmarked) [Example 63, Ethyl 4-[4-(5-methoxy-2-methylpyrimidin-4-yl)piperidin-1-yl]azepane-1-carboxylate] were, in that order, 560 nM, 43% and “No Response”.
Taken in the same sequence, the figures for `CCOC(=O)N1CCC(CN2CC(n3cccn3)C2)CC1` [Example 29, Ethyl 4-{[3-(1H-pyrazol-1-yl)azetidin-1-yl]methyl}piperidine-1-carboxylate] were 1830 nM, 29% and “No Response”.
Taken in the same sequence, the figures for `CCOC(=O)N1CCCC(N2CCC(c3cccc(OC)n3)CC2)CC1` (centres unmarked) [Example 33, Ethyl 4-[4-(6-methoxypyridin-2-yl)piperidin-1-yl]azepane-1-carboxylate] were 180 nM, 61% and “No Response”.
Regarding `CCOC(=O)N1CCCC(N2CCC(n3nccc3CNC(C)=O)CC2)CC1` (centres unmarked) [Example 28, Ethyl 4-{4-[5-(acetamidomethyl)-1H-pyrazol-1-yl]piperidin-1-yl}azepane-1-carboxylate], on human M4 receptor (setting [1]), the EC50 was determined as 1480 nM. Further, the Emax at human M4 receptor came out at 59%. In addition, the “M2 EC50” value at human M2 receptor is given as “No Response”.
Take `CCOC(=O)N1CCC(N2CCC(c3nc(OC)cc(OC)n3)CC2)CC1` [Example 37, Ethyl 4-[4-(4,6-dimethoxypyrimidin-2-yl)piperidin-1-yl]piperidine-1-carboxylate]: the EC50 at human M4 receptor (setting [1]) stood at 3340 nM. In addition, the Emax at human M4 receptor stood at 39%. In addition, on human M2 receptor, the “M2 EC50” value is recorded as “No Response”.
`CCOC(=O)N1CCCC(N2CCC(n3nccc3C(F)(F)F)CC2)CC1` (centres unmarked) [Example 69, Ethyl 4-{4-[5-(trifluoromethyl)-1H-pyrazol-1-yl]piperidin-1-yl}azepane-1-carboxylate]: the EC50 at human M4 receptor (setting [1]) is 630 nM; on human M2 receptor, more than 10000 nM. Besides, on human M4 receptor, the Emax worked out at 63%. Besides, at human M2 receptor, the activation at 10 µM came out at 21%.
Regarding `CCOC(=O)N1CCCC(N2CCC(n3cc(-c4ccc(F)cc4)cn3)CC2)CC1` (centres unmarked) [Example 18, Ethyl 4-{4-[4-(4-fluorophenyl)-1H-pyrazol-1-yl]piperidin-1-yl}azepane-1-carboxylate], on human M4 receptor (setting [1]), the EC50 came out at 410 nM. Moreover, the Emax at human M4 receptor turned out to be 45%. The “M2 EC50” value at human M2 receptor is “No Response”.
The like results for `CCOC(=O)N1CCC(N2CCC(c3ccncc3)CC2)CC1` [Example 31, Ethyl 4-[4-(pyridin-4-yl)piperidin-1-yl]piperidine-1-carboxylate] were, in that order, 2260 nM, 30% and “No Response”.
For `CCOC(=O)N1CCCC(N2CCC(c3cccnc3OC(F)F)CC2)CC1` (centres unmarked) [Example 52, Ethyl 4-{4-[2-(difluoromethoxy)pyridin-3-yl]piperidin-1-yl}azepane-1-carboxylate], the EC50 at human M4 receptor (setting [1]) stood at 10 nM. For the same compound, the Emax at human M4 receptor came to 96%. Moreover, at human M2 receptor, the EC50 is more than 10000 nM and the activation at 10 µM amounted to 25%.
On to `CCOC(=O)N1CCC(CN2CCC(n3nc(C)cc3C)C2)CC1` (centres unmarked) [Example 79, Ethyl 4-{[3-(3,5-dimethyl-1H-pyrazol-1-yl)pyrrolidin-1-yl]methyl}piperidine-1-carboxylate], for which the EC50 at human M4 receptor (setting [1]) stood at 340 nM. Also, the Emax on human M4 receptor came out at 50%. The “M2 EC50” value on human M2 receptor is reported as “No Response”.
The like results for `CCOC(=O)N1CCCC(N2CCC(c3ccncc3)CC2)CC1` (centres unmarked) [Example 30, Ethyl 4-[4-(pyridin-4-yl)piperidin-1-yl]azepane-1-carboxylate] were, in that order, 1660 nM, 27% and “No Response”.
The like results for `CCOC(=O)N1CCCC(N2CCC(c3cc[nH]n3)CC2)CC1` (centres unmarked) [Example 6, Ethyl 4-[4-(1H-pyrazol-3-yl)piperidin-1yl]azepane-1-carboxylate] were, in that order, 190 nM, 53% and “No Response”.
Taken in the same sequence, the figures for `CCOC(=O)N1CCCC(N2CCC(c3nccn3CC)CC2)CC1` (centres unmarked) [Example 10, Ethyl 4-[4-(1-ethyl-1H-imidazol-2-yl)piperidin-1-yl]azepane-1-carboxylate] were 1740 nM, 44% and “No Response”.
For `CCOC(=O)N1CCCC(N2CCC(c3ncccc3OC)CC2)CC1` (centres unmarked) [Example 38, Ethyl 4-[4-(3-methoxypyridin-2-yl)piperidin-1-yl]azepane-1-carboxylate], the figures for the half-maximal effective concentration (EC50) on human M4 receptor (setting [1]) and on human M2 receptor were 30 nM and 160 nM, respectively. In addition, at human M4 receptor, the Emax came out at 92%. In addition, the “M2 % RE” value at human M2 receptor (relative efficacy to an EC100 concentration of acetylcholine) turned out to be 75%.
Consider `CCOC(=O)N1CCCC(N2CCC(c3ncccn3)CC2)CC1` (centres unmarked) [Example 74, Ethyl 4-[4-(pyrimidin-2-yl)piperidin-1-yl]azepane-1-carboxylate], for which the 50% effective concentration (EC50) on human M4 receptor (setting [1]) is 1050 nM; at human M2 receptor, more than 10000 nM. On human M4 receptor, the Emax came to 61%. The activation at 10 µM at human M2 receptor amounted to 20%.
For `CCOC(=O)N1CCCC(N2CCC(c3cccnc3-c3cnn(C)c3)CC2)CC1` (centres unmarked) [Example 73, Ethyl 4-{4-[2-(1-methyl-1H-pyrazol-4-yl)pyridin-3-yl]piperidin-1-yl}azepane-1-carboxylate], the EC50 at human M4 receptor (setting [1]) was determined as 650 nM. At human M4 receptor, the Emax worked out at 53%. The “M2 EC50” value on human M2 receptor was “No Response”.
The like results for `COC(=O)N1CCC(CN2CCC(n3nc(C)cc3C)C2)CC1` (centres unmarked) [Example 78, Methyl 4-{[3-(3,5-dimethyl-1H-pyrazol-1-yl)pyrrolidin-1-yl]methyl}piperidine-1-carboxylate] were, in that order, 2680 nM, 36% and “No Response”.
Taken in the same sequence, the figures for `CCOC(=O)N1CCCC(N2CCC(c3cccnc3C)CC2)CC1` (centres unmarked) [Example 41, Ethyl 4-[4-(2-methylpyridin-3-yl)piperidin-1-yl]azepane-1-carboxylate] were 260 nM, 54% and “No Response”.
On to `CCOC(=O)N1CCCC(N2CCC(c3nc(C(F)(F)F)ncc3OC)CC2)CC1` (centres unmarked) [Example 60, Ethyl 4-{4-[5-methoxy-2-(trifluoromethyl)pyrimidin-4-yl]piperidin-1-yl}azepane-1-carboxylate], for which the EC50 at human M4 receptor (setting [1]) was found to be 180 nM. The Emax on human M4 receptor was determined as 68%. The “M2 EC50” value at human M2 receptor is on record as “No Response”.
As to `CCOC(=O)N1CCCC(N2CCC(n3nccc3C)CC2)CC1` (centres unmarked) [Example 12, Ethyl 4-[4-(5-methyl-1H-pyrazol-1-yl)piperidin-1-yl]azepane-1-carboxylate], the EC50 on human M4 receptor (setting [1]) was 520 nM; on human M2 receptor, more than 10000 nM. Moreover, the Emax on human M4 receptor was 82%. On human M2 receptor, the activation at 10 µM was 28%.
With `CCOC(=O)N1CCCC(N2CCC(c3cccnc3OCC)CC2)CC1` (centres unmarked) [Example 53, Ethyl 4-[4-(2-ethoxypyridin-3-yl)piperidin-1-yl]azepane-1-carboxylate], the EC50 on human M4 receptor (setting [1]) came out at 60 nM. In addition, the Emax at human M4 receptor was 80%. Also, the “M2 EC50” value on human M2 receptor was “No Response”.
The like results for `CCOC(=O)N1CCCC(N2CCC(c3cccnc3N(C)C)CC2)CC1` (centres unmarked) [Example 65, Ethyl 4-{4-[2-(dimethylamino)pyridin-3-yl]piperidin-1-yl}azepane-1-carboxylate] were, in that order, 190 nM, 87% and “No Response”.
In the case of `CCOC(=O)N1CCC[C@@H](N2CCC(c3nccn3C)CC2)CC1` [Example 84, Ethyl (4R)-4-[4-(1-methyl-1H-imidazol-2-yl)piperidin-1-yl]azepane-1-carboxylate], the “M4 EC50” value at human M4 receptor (setting [1]) is reported as “No response”.
Turning to `CCOC(=O)N1CCC[C@@H](N2CCC(n3cccn3)CC2)CC1` [Example 82, Ethyl (4R)-4-[4-(1H-pyrazol-1-yl)piperidin-1-yl]azepane-1-carboxylate], the EC50 at human M4 receptor (setting [1]) was 460 nM. On human M4 receptor, the Emax stood at 80%.

These data come from patent US10030012B2, “Piperidin-1-yl and azepin-1-yl carboxylates as muscarinic M4 receptor agonists” (Heptares Therapeutics Limited, priority 2013, dated 2018).
